Key:
[1] = test system: A549 cells; assay: clonogenic survival assay (linear-quadratic model); assay type: cell-based, human
Protocol: Cells were cultured in phenol-red-free medium and irradiated with a […] (Varian, 21-EX). The radiation was delivered as a single dose ranging from 2 to 8 Gy in an appropriate field size at a dose rate of 400 cGy/min. A 3-cm polystyrene block was used under the petri dishes during each irradiation to allow homogeneous backscattering radiation. Control cells were removed from the incubator and placed for the same period of time under the IR source but without radiation treatment. In the combined treatment mortality tests, berberine was added 2 h prior to irradiation.
The enhancing effect of berberine on radio-sensitivity in NSCLC was performed by treating A549 with various concentrations of berberine alone or combined with different dose of IR at 37° C. for 24 h or 48 h followed by MTT assay for cell viability analysis. Thereafter, the medium was changed and incubated with 100 μl MTT (Sigma St Louis, Mo.)/well for 4 h, which was solubilized in isopropanol, and measured spectrophotometrically at 563 nm. […] To further ascertain the effect of berberine on the lethality of IR, clonogenic survival assay was performed to examine long term survival. IR or berberine-treated cells (1000 cells) were plated onto 10 cm tissue culture dish in five replicates. After 14 days, colonies were fixed with methanol, stained with 0.25% crystal violet, and counted if they were consisted of more than 50 cells. The fraction of colonies survived from the irradiation was normalized to that of the corresponding control. The curves were fitted to the data using linear-quadratic model. The data were depicted in FIG. 1C after normalization.
Statistical significances were analyzed by student t-test or one-way analysis of variance (ANOVA) with post-hock Dunnett's test. P-value≦0.05 was considered statistically significant (Sigma-Stat 2.0, San Rafael, Calif., USA). Survival fraction curve was analyzed by KaleigaGraph 4.0 then fitted to the data using linear-quadratic model. Combination index was analyzed by CalcuSyn.

[2] = test system: A549 cells; assay: cell cycle distribution by propidium iodide flow cytometry; assay type: cell-based, human; conditions: 24 h
Protocol: Flow cytometry was performed by propidium iodide staining (Roche Molecular Biochemical, Indianapolis, USA) according to the manufacturer's instructions. Untreated and treated cells were washed in PBS and fixed in ice-cold ethanol. Fixed cells were pelleted and resuspended in 500 μl of PBS. Then, the cells were stained with propidium iodide and analyzed for cell cycle distribution by flow cytometry with a FACStar caliber (Becton Dickinson) cell sorter. The percentage of each phase was evaluated by Cell-Quest software of the histograms.

[3] = test system: Lewis lung carcinoma (LLC); assay: Lewis lung carcinoma (LLC) tumor xenograft growth in mice; assay type: in vivo, C57BL/6 mice; conditions: for tumor volume relative to that before the treatment: LLC in C57BL/6 mice, p<0.001
Protocol: The application of the additive cytotoxicity of IR combined with berberine in cancer treatment was further evidenced in an in vivo Lewis lung carcinoma (LLC) model in mice (Camphausen K, et al. Cancer Res 2001; 61:2207-11). Male C57BL/6 mice aged 4-6 weeks (National Taiwan University Animal Center, Taiwan) were used. To form a tumor xenograft, Lewis lung cells (2×10^6) were injected s.c. into the right hind limb. Animals were randomized into six groups: control, irradiation (IR) alone, berberine (1.0, 2.0 mg/kg) alone, and IR combined with berberine (1.0, 2.0 mg/kg). For tumor irradiation, mice were immobilized in a customized harness that exposed the right hind leg while shielding the remainder of the body by 3.5 cm of lead. Mice were exposed to a single dose of 8 Gy. Berberine was supplemented (1.0, 2.0 mg/kg, i.p.) to animals 1 day before the radiation exposure, and then twice a week for 4 weeks. To obtain tumor growth curves, three orthogonal tumor diameters were measured every 4-day intervals with a vernier caliper, and the mean values were calculated. The animals were killed (n=5 per group) at the indicated time points, and the primary tumor was dissected and examined. Primary tumor growth delay was measured by calipers in two dimensions, and the volumes were calculated according to the formula: tumor volume=(width) 2×length×0.52. LLC cells were injected s.c. into the right thighs of C57BL/6 mice 10 days before the IR therapy. The animals were randomized into six treatment groups: untreated, 8 Gy radiation in one dose, berberine alone (1.0, 2.0 mg/kg i.p., twice weekly), and berberine combined with IR treatment (FIG. 6A). Berberine was supplemented to the indicated groups one day before the IR treatment and continued for 4 weeks. The tumor volume at the primary site of each group was measured before treatment, and the average tumor volume was designated as T0. When the animals were sacrificed at the end of experiment, the xenografts were removed, and the tumor volume was determined and presented as fold of T0. The blood samples were collected for biochemical analysis. […] Berberine at 1.0 and 2.0 mg/kg, as used with IR, has shrunk the tumor volume down to approximately 48% and 22% of that before the treatment (FIG. 6C, p<0.001). Furthermore, immunohistochemistry was performed to detect the level of beclin-1 and bcl-2 proteins in the xenograft. Primary tumors were fixed and then embedded in paraffin. The sections were stained with anti-bcl-2 mouse-monoclonal antibody (1:100, Santa Cruz Biotechnology, Santa Cruz, Calif.) or anti-beclin-1 rabbit polyclonal antiserum (1:50, Santa Cruz Biotechnology, Santa Cruz, Calif.). The sections were then incubated with blocking buffer for 40 min at RT followed by incubation with the primary antibody over night at 4° C. […]

[4] = test system: beclin-1; assay: immunohistochemistry of beclin-1 in xenograft; assay type: in vivo, C57BL/6 mice; conditions: co-treatment groups (berberine + IR)
Protocol: The application of the additive cytotoxicity of IR combined with berberine in cancer treatment was further evidenced in an in vivo Lewis lung carcinoma (LLC) model in mice (Camphausen K, et al. Cancer Res 2001; 61:2207-11). Male C57BL/6 mice aged 4-6 weeks (National Taiwan University Animal Center, Taiwan) were used. To form a tumor xenograft, Lewis lung cells (2×10^6) were injected s.c. into the right hind limb. Animals were randomized into six groups: control, irradiation (IR) alone, berberine (1.0, 2.0 mg/kg) alone, and IR combined with berberine (1.0, 2.0 mg/kg). For tumor irradiation, mice were immobilized in a customized harness that exposed the right hind leg while shielding the remainder of the body by 3.5 cm of lead. Mice were exposed to a single dose of 8 Gy. […] To obtain tumor growth curves, three orthogonal tumor diameters were measured every 4-day intervals with a vernier caliper, and the mean values were calculated. […] Primary tumor growth delay was measured by calipers in two dimensions, and the volumes were calculated according to the formula: tumor volume=(width) 2×length×0.52. […] The tumor volume at the primary site of each group was measured before treatment, and the average tumor volume was designated as T0. When the animals were sacrificed at the end of experiment, the xenografts were removed, and the tumor volume was determined and presented as fold of T0. […]

[5] = IR (6 Gy) + 5.0 μM berberine, listed as Ber

COc1ccc2cc3[n+](cc2c1OC)CCc1cc2c(cc1-3)OCO2 [berberine, Berberine]
decrease in the D0 value ([1]; 10 μM berberine vs IR alone): 4.2 fold
D0 (dose of radiation producing a 37% survival rate) ([1]; IR + 2.5 μM berberine): 4.01 Gy
SF2 ([1]; IR + 2.5 μM berberine): 0.3184
D0 (dose of radiation producing a 37% survival rate) ([1]; IR + 5.0 μM berberine): 2.70 Gy
SF2 ([1]; IR + 5.0 μM berberine): 0.2152
D0 (dose of radiation producing a 37% survival rate) ([1]; IR + 10 μM berberine): 1.24 Gy
SF2 ([1]; IR + 10 μM berberine): 0.0991
G0/G1 ([2]; IR (6 Gy) + 2.5 μM berberine): 45.5 ± 4.96%
G2/M ([2]; IR (6 Gy) + 2.5 μM berberine): 28.8%
S ([2]; IR (6 Gy) + 2.5 μM berberine): 20.1 ± 2.26%
sub G1 ([2]; IR (6 Gy) + 2.5 μM berberine): 5.6 ± 0.18%
G2/M ([2]; IR (6 Gy) + 2.5 μM berberine, listed as Ber): 28.8 ± 2.91%
G0/G1 ([2]; IR (6 Gy) + 5.0 μM berberine): 36.2 ± 4.15%
G2/M ([2]; IR (6 Gy) + 5.0 μM berberine): 40.5%
S ([2]; IR (6 Gy) + 5.0 μM berberine): 14.8 ± 2.05%
sub G1 ([2]; IR (6 Gy) + 5.0 μM berberine): 8.5%
G2/M [2, 5]: 40.5 ± 4.55%
sub G1 [2, 5]: 8.5 ± 0.22%
G0/G1 ([2]; IR (6 Gy) + 10 μM berberine): 33.9 ± 4.01%
G2/M ([2]; IR (6 Gy) + 10 μM berberine): 41.7%
S ([2]; IR (6 Gy) + 10 μM berberine): 15.5 ± 1.81%
sub G1 ([2]; IR (6 Gy) + 10 μM berberine): 8.9 ± 0.25%
G2/M ([2]; IR (6 Gy) + 10 μM berberine, listed as Ber): 41.7 ± 3.91%
G0/G1 ([2]; IR (6 Gy) + 20 μM berberine): 37.2 ± 4.27%
G2/M ([2]; IR (6 Gy) + 20 μM berberine): 30.5 ± 3.18%
S ([2]; IR (6 Gy) + 20 μM berberine): 16.7 ± 2.33%
sub G1 ([2]; IR (6 Gy) + 20 μM berberine): 15.6 ± 1.26%
tumor volume relative to that before the treatment ([3]; berberine 1.0 mg/kg i.p. twice weekly for 4 weeks with IR 8 Gy): approximately 48%
tumor volume relative to that before the treatment ([3]; berberine 2.0 mg/kg i.p. twice weekly for 4 weeks with IR 8 Gy): ~22%
tumor size in tumor growth curves ([3]; berberine (1.0, 2.0 mg/kg) combined with IR 8 Gy, LLC in mice (FIG. 6B)): considerable reduced size
growth of the xenograft ([3]; berberine alone (1.0, 2.0 mg/kg i.p., twice weekly), LLC in mice): slowed down
beclin-1 protein expression in xenograft [4]: remarkable increased

Reference: patent US20090076050A1, “SYNERGISTIC TUMOR-KILLING EFFECT OF RADIATION AND BERBERINE COMBINED TREATMENT IN LUNG CANCER” (CHUNG SHAN MEDICAL U., priority 2007, published 2009)
